Columns and labels:
[1] = system: Green Peach Aphid (Myzus Persicae); experiment: Test of preventive value against green peach aphid (Test Example 1); assay type: in vivo; settings: 500 ppm, sprayed over stems and leaves of potted Chinese cabbages, sixth day after spraying
Protocol: Test of Preventive Value Against Green Peach Aphid (Myzus Persicae)
Chinese cabbages were planted in plastic pots, each with a size of 8 cm in diameter and 8 cm in height, after which green peach aphids were propagated and the number of parasitic insects was examined in each pot. An oxazepine compound or salt thereof expressed by General Formula (I) according to the present invention was dispersed in water and the dispersion was diluted to 500 ppm in the form of a reagent, after which the reagent was sprayed over stems and leaves of potted Chinese cabbages and let dry under wind, and the pots were kept in a greenhouse, and on the sixth day after the reagent was sprayed, the number of green peach aphids living parasitically on each Chinese cabbage was examined and the preventive value was calculated based on the formula below, and judgment was made according to the criteria below. Preventive value=100−{(T×Ca)/(Ta×C)}×100 [Mathematical Formula 1] • Ta: Number of parasitic insects inside the treatment area before spraying • T: Number of parasitic insects inside the treatment area after spraying • Ca: Number of parasitic insects inside the non-treatment area before spraying • C: Number of parasitic insects inside the non-treatment area after spraying Judgment Criteria • A - - - Preventive value: 100% • B - - - Preventive value: 99%˜90% • C - - - Preventive value: 89%˜80% • D - - - Preventive value: 79%˜50%

[2] = system: Small Brown Planthopper (Laodelphax Striatellus); experiment: Test of insecticidal efficacy against small brown planthopper (Test Example 2); assay type: in vivo; settings: 500 ppm, rice plants soaked 30 seconds, third-instar larvae, eight days after inoculation; criteria same as in Test Example 1
From the text: Test of Insecticidal Efficacy Against Small Brown Planthopper (Laodelphax Striatellus)

C#CCN1C(=O)c2nn(-c3cccnc3)cc2Oc2ccccc21 [1-3]
Preventive value, judgment [1]: A to D | Corrected insect mortality, judgment [2]: A to D

N#CCN1C(=O)c2nn(-c3cccnc3)cc2Oc2ccccc21 [1-4]
Preventive value, judgment [1]: A to D | Corrected insect mortality, judgment [2]: A to D

O=C1c2nn(-c3cccnc3)cc2Oc2ccccc2N1CC(F)(F)F [1-5]
Preventive value, judgment [1]: A to D | Corrected insect mortality, judgment [2]: A to D

O=C1Nc2cccc(F)c2Oc2cn(-c3cccnc3)nc21 [1-6]
Preventive value, judgment [1]: A to D | Corrected insect mortality, judgment [2]: A to D

CN1C(=O)c2nn(-c3cccnc3)cc2Oc2c(F)cccc21 [1-7]
Preventive value, judgment [1]: A to D | Corrected insect mortality, judgment [2]: A to D

C#CCN1C(=O)c2nn(-c3cccnc3)cc2Oc2c(F)cccc21 [1-8]
Preventive value, judgment [1]: A to D | Corrected insect mortality, judgment [2]: A to D

N#CCN1C(=O)c2nn(-c3cccnc3)cc2Oc2c(F)cccc21 [1-9]
Preventive value, judgment [1]: A to D | Corrected insect mortality, judgment [2]: A to D

C#CCN1C(=O)c2nn(-c3cccnc3)cc2Oc2cc(F)ccc21 [1-12]
Preventive value, judgment [1]: A to D | Corrected insect mortality, judgment [2]: A to D

O=C1Nc2cc(F)ccc2Oc2cn(-c3cccnc3)nc21 [1-14]
Preventive value, judgment [1]: A to D | Corrected insect mortality, judgment [2]: A to D

CN1C(=O)c2nn(-c3cccnc3)cc2Oc2ccc(F)cc21 [1-15]
Preventive value, judgment [1]: A to D | Corrected insect mortality, judgment [2]: A to D

C#CCN1C(=O)c2nn(-c3cccnc3)cc2Oc2ccc(F)cc21 [1-16]
Preventive value, judgment [1]: A to D | Corrected insect mortality, judgment [2]: A to D

N#CCN1C(=O)c2nn(-c3cccnc3)cc2Oc2ccc(F)cc21 [1-17]
Preventive value, judgment [1]: A to D | Corrected insect mortality, judgment [2]: A to D

CN1C(=O)c2nn(-c3cccnc3)cc2Oc2cccc(F)c21 [1-19]
Preventive value, judgment [1]: A to D | Corrected insect mortality, judgment [2]: A to D

CN1C(=O)c2nn(-c3cccnc3)cc2Oc2c(Cl)cccc21 [1-23]
Preventive value, judgment [1]: A to D | Corrected insect mortality, judgment [2]: A to D

O=C1Nc2ccc(Cl)cc2Oc2cn(-c3cccnc3)nc21 [1-26]
Preventive value, judgment [1]: A to D | Corrected insect mortality, judgment [2]: A to D

CN1C(=O)c2nn(-c3cccnc3)cc2Oc2cc(Cl)ccc21 [1-27]
Preventive value, judgment [1]: A to D | Corrected insect mortality, judgment [2]: A to D

C#CCN1C(=O)c2nn(-c3cccnc3)cc2Oc2cc(Cl)ccc21 [1-28]
Preventive value, judgment [1]: A to D | Corrected insect mortality, judgment [2]: A to D

N#CCN1C(=O)c2nn(-c3cccnc3)cc2Oc2cc(Cl)ccc21 [1-29]
Preventive value, judgment [1]: A to D | Corrected insect mortality, judgment [2]: A to D

Cc1ccc2c(c1)Oc1cn(-c3cccnc3)nc1C(=O)N2 [1-30]
Preventive value, judgment [1]: A to D | Corrected insect mortality, judgment [2]: A to D

Cc1ccc2c(c1)Oc1cn(-c3cccnc3)nc1C(=O)N2C [1-31]
Corrected insect mortality, judgment [2]: A to D

C#CCN1C(=O)c2nn(-c3cccnc3)cc2Oc2cc(C)ccc21 [1-32]
Preventive value, judgment [1]: A to D | Corrected insect mortality, judgment [2]: A to D

Cc1ccc2c(c1)Oc1cn(-c3cccnc3)nc1C(=O)N2CC#N [1-33]
Preventive value, judgment [1]: A to D | Corrected insect mortality, judgment [2]: A to D

CN1C(=O)c2nn(-c3cccnc3)cc2Oc2cc(C(F)(F)F)ccc21 [1-34]
Preventive value, judgment [1]: A to D | Corrected insect mortality, judgment [2]: A to D

C#CCN1C(=O)c2nn(-c3cccnc3)cc2Oc2cc(C(F)(F)F)ccc21 [1-35]
Preventive value, judgment [1]: A to D | Corrected insect mortality, judgment [2]: A to D

N#CCN1C(=O)c2nn(-c3cccnc3)cc2Oc2cc(C(F)(F)F)ccc21 [1-36]
Preventive value, judgment [1]: A to D | Corrected insect mortality, judgment [2]: A to D

O=C1Nc2cc(C(F)(F)F)ccc2Oc2cn(-c3cccnc3)nc21 [1-37]
Preventive value, judgment [1]: A to D | Corrected insect mortality, judgment [2]: A to D

CN1C(=O)c2nn(-c3cccnc3)cc2Oc2ccc(C(F)(F)F)cc21 [1-38]
Preventive value, judgment [1]: A to D | Corrected insect mortality, judgment [2]: A to D

COc1ccc2c(c1)Oc1cn(-c3cccnc3)nc1C(=O)N2 [1-39]
Preventive value, judgment [1]: A to D | Corrected insect mortality, judgment [2]: A to D

COc1ccc2c(c1)Oc1cn(-c3cccnc3)nc1C(=O)N2C [1-40]
Preventive value, judgment [1]: A to D | Corrected insect mortality, judgment [2]: A to D

C#CCN1C(=O)c2nn(-c3cccnc3)cc2Oc2cc(OC)ccc21 [1-41]
Preventive value, judgment [1]: A to D | Corrected insect mortality, judgment [2]: A to D

COc1ccc2c(c1)Oc1cn(-c3cccnc3)nc1C(=O)N2CC#N [1-42]
Preventive value, judgment [1]: A to D | Corrected insect mortality, judgment [2]: A to D

Nc1ccc2c(c1)NC(=O)c1nn(-c3cccnc3)cc1O2 [1-44]
Preventive value, judgment [1]: A to D | Corrected insect mortality, judgment [2]: A to D

CN1C(=O)c2nn(-c3cccnc3)cc2Oc2ccc(N)cc21 [1-45]
Preventive value, judgment [1]: A to D | Corrected insect mortality, judgment [2]: A to D

CN(C)c1ccc2c(c1)N(C)C(=O)c1nn(-c3cccnc3)cc1O2 [1-46]
Preventive value, judgment [1]: A to D | Corrected insect mortality, judgment [2]: A to D

CN1C(=O)c2nn(-c3cccnc3)cc2Oc2cc(C#N)ccc21 [1-47]
Preventive value, judgment [1]: A to D | Corrected insect mortality, judgment [2]: A to D

C#CCN1C(=O)c2nn(-c3cccnc3)cc2Oc2cc(C#N)ccc21 [1-48]
Preventive value, judgment [1]: A to D | Corrected insect mortality, judgment [2]: A to D

N#Cc1ccc2c(c1)NC(=O)c1nn(-c3cccnc3)cc1O2 [1-50]
Preventive value, judgment [1]: A to D | Corrected insect mortality, judgment [2]: A to D

CCCCN1C(=O)c2nn(-c3cccnc3)cc2Oc2ccccc21 [1-51]
Preventive value, judgment [1]: A to D | Corrected insect mortality, judgment [2]: A to D

CCCCCCN1C(=O)c2nn(-c3cccnc3)cc2Oc2ccccc21 [1-52]
Preventive value, judgment [1]: A to D | Corrected insect mortality, judgment [2]: A to D

CN(C)CCN1C(=O)c2nn(-c3cccnc3)cc2Oc2ccccc21 [1-69]
Corrected insect mortality, judgment [2]: A to D

C#CCN1Cc2nn(-c3cccnc3)cc2Oc2ccccc21 [3-3]
Corrected insect mortality, judgment [2]: A to D

CCOCN1C(=O)c2nn(-c3cccnc3)cc2Oc2ccccc21 [8-21]
Corrected insect mortality, judgment [2]: A to D

C=CCN1C(=O)c2nn(-c3cccnc3)cc2Oc2cc(F)ccc21 [8-23]
Corrected insect mortality, judgment [2]: A to D

N#CCN1C(=O)c2nn(-c3cccnc3)cc2Oc2ccc(Cl)cc21 [8-57]
Corrected insect mortality, judgment [2]: A to D

C=CCN1C(=O)c2nn(-c3cccnc3)cc2Oc2ccc(Cl)cc21 [8-58]
Corrected insect mortality, judgment [2]: A to D

O=C1Nc2ccc(Br)cc2Oc2cn(-c3cccnc3)nc21 [8-60]
Preventive value, judgment [1]: A to D

CN1C(=O)c2nn(-c3cccnc3)cc2Oc2cc(Br)ccc21 [8-61]
Preventive value, judgment [1]: A to D

CN1C(=O)c2nn(-c3cccnc3)cc2Oc2ccc(Br)cc21 [8-63]
Preventive value, judgment [1]: A to D

C=CCN1C(=O)c2nn(-c3cccnc3)cc2Oc2ccc(Br)cc21 [8-64]
Corrected insect mortality, judgment [2]: A to D

C#CCN1C(=O)c2nn(-c3cccnc3)cc2Oc2ccc(Br)cc21 [8-65]
Preventive value, judgment [1]: A to D

N#CCN1C(=O)c2nn(-c3cccnc3)cc2Oc2ccc(Br)cc21 [8-66]
Corrected insect mortality, judgment [2]: A to D

CN1C(=O)c2nn(-c3cccnc3)cc2Oc2cc(I)ccc21 [8-67]
Preventive value, judgment [1]: A to D

O=C1Nc2ccc(Cl)cc2Oc2c1nn(-c1cccnc1)c2Cl [9-4]
Preventive value, judgment [1]: A to D

N#CCN1C(=O)c2nn(-c3cccnc3)c(Cl)c2Oc2cc(F)ccc21 [9-5]
Preventive value, judgment [1]: A to D

O=C1Nc2ccccc2Nc2cn(-c3cccnc3)nc21 [10-1]
Preventive value, judgment [1]: A to D

C[Si](C)(C)C#CC1=Nc2ccccc2Oc2cn(-c3cccnc3)nc21 [11-4]
Preventive value, judgment [1]: A to D

CN1CCN(C2=Nc3ccccc3Oc3cn(-c4cccnc4)nc32)CC1 [11-12]
Preventive value, judgment [1]: A to D

CN1CCN(C2=Nc3cc(F)ccc3Oc3cn(-c4cccnc4)nc32)CC1 [11-13]
Preventive value, judgment [1]: A to D

c1cncc(-n2cc3c(n2)C(N2CCOCC2)=Nc2ccccc2O3)c1 [11-14]
Preventive value, judgment [1]: A to D

Fc1ccc2c(c1)N=C(N1CCOCC1)c1nn(-c3cccnc3)cc1O2 [11-15]
Corrected insect mortality, judgment [2]: A to D

COCOC1=Nc2ccccc2Oc2cn(-c3cccnc3)nc21 [11-16]
Corrected insect mortality, judgment [2]: A to D

Cc1nn(C)c2c1N(C)C(=O)c1nn(-c3cccnc3)cc1O2 [14-2]
Preventive value, judgment [1]: A to D

C=CCN1C(=O)c2nn(-c3cccnc3)cc2Oc2c1c(C)nn2C [14-3]
Corrected insect mortality, judgment [2]: A to D

C#CCN1C(=O)c2nn(-c3cccnc3)cc2Oc2c1c(C)nn2C [14-4]
Preventive value, judgment [1]: A to D

O=C1Nc2ccsc2Oc2cn(-c3cccnc3)nc21 [15-1]
Preventive value, judgment [1]: A to D

CN1C(=O)c2nn(-c3cccnc3)cc2Oc2sccc21 [15-2]
Preventive value, judgment [1]: A to D

C#CCN1C(=O)c2nn(-c3cccnc3)cc2Oc2sccc21 [15-3]
Preventive value, judgment [1]: A to D

N#CCN1C(=O)c2nn(-c3cccnc3)cc2Oc2sccc21 [15-4]
Preventive value, judgment [1]: A to D
